In patent US5750104A, “High buffer-containing enteric coating digestive enzyme bile acid compositions and method of treating digestive disorders therewith” (Digestive Care Inc., priority 1996, dated 1998):

How the values were obtained:
pancreatic enzymes = assay: Compatibility and biological activity of pancreatic enzymes in acidic UDCA compositions; type: biochemical; settings: acidic form of UDCA
Description: Pancreatic enzymes and salts of UDCA complement one another in the digestive system of a mammal. A dietary supplement containing both the enzymes and salts of UDCA would provide in a convenient pre-determined dose the remedy needed to treat the above-described diseased states. […] Lipase is especially affected by the low pH for the reasons that: […]

[1] = cited from earlier work

Structure (SMILES): C[C@H](CCC(=O)O)[C@H]1CC[C@H]2[C@@H]3[C@@H](O)C[C@@H]4C[C@H](O)CC[C@]4(C)[C@H]3CC[C@]12C [UDCA, ursodeoxycholic acid]
- compatibility with pancreatic enzymes (pancreatic enzymes): incompatible with pancreatic enzymes
- benefit at higher dosage ([1]; about 30 mg/kg of body weight, some patients): limited benefits
- effect on liver function ([1]; human, in vivo): augmenting liver function
- undesirable side effects ([1]; human, in vivo): severe diarrhea
- effect on nutritional state ([1]; patients having cystic fibrosis, hepatobiliary complications): improving the nutritional state
